For assay [1], the target named is T1, Serine/threonine-protein kinase Nek1 (Homo sapiens) (UniProt Q96PY6).
T1 sequence (whole entry): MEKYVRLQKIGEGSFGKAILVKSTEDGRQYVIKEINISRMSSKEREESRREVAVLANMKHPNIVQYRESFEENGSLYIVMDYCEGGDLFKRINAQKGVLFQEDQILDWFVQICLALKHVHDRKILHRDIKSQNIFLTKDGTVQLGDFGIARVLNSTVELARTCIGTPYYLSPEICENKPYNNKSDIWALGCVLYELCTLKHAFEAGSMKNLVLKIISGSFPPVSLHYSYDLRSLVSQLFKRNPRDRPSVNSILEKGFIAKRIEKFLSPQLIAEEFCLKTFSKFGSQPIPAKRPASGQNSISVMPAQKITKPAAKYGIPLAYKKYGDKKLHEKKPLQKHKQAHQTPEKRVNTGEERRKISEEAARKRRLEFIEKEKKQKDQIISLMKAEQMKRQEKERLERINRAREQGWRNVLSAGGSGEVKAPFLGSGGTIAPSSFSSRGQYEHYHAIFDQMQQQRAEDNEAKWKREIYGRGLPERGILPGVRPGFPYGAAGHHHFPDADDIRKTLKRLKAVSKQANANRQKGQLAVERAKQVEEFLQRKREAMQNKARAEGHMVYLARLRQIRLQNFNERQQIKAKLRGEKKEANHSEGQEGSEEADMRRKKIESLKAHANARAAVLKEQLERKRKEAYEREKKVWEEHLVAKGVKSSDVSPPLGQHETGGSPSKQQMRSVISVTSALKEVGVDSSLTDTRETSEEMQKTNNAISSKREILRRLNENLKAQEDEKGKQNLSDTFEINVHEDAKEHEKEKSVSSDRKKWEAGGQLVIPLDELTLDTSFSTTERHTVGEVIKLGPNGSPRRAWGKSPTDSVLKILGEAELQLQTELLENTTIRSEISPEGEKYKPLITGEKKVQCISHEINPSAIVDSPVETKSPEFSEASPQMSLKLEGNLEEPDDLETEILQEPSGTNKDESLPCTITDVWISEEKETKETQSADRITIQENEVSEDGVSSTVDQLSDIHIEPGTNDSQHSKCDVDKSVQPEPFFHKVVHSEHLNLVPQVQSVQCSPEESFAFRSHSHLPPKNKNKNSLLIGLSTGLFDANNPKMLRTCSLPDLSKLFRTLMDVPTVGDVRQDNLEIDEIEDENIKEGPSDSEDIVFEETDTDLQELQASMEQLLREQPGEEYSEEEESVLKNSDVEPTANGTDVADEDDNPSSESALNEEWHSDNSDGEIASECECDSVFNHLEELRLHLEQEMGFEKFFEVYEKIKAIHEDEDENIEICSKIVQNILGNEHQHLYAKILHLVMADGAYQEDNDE
Briefly: Inhibition of human NEK1 using myelin basic protein as substrate at 1 uM in presence of 32P-ATP by Hotspot assay relative to control; values are per cent of control.

Assay [2] deals with T2, cGMP-dependent protein kinase 1 (Homo sapiens) (UniProt Q13976).
T2 sequence (whole entry): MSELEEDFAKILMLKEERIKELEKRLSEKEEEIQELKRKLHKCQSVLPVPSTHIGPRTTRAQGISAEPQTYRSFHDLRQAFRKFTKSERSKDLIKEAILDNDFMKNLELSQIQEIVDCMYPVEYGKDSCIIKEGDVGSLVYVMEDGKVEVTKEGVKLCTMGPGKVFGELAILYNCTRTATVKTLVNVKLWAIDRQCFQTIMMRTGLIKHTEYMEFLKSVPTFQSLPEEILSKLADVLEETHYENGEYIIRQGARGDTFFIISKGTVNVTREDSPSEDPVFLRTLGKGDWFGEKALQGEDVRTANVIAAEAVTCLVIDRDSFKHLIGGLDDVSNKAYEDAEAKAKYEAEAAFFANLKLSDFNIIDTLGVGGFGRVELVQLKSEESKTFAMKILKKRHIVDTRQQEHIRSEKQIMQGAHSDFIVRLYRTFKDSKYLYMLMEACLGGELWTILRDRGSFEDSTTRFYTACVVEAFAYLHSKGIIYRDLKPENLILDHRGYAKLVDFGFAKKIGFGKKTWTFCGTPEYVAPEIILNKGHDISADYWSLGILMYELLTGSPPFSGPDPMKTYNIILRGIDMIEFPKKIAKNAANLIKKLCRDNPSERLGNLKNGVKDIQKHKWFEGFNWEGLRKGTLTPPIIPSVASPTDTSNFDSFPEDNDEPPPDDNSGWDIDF
The assay is described as follows: Inhibition of human PKG1a using LRRASLG as substrate at 1 uM in presence of 32P-ATP by Hotspot assay relative to control; values are per cent of control.

Assay [3] addresses T3, Rhodopsin kinase GRK7 (Homo sapiens) (UniProt Q8WTQ7).
T3 sequence (whole entry): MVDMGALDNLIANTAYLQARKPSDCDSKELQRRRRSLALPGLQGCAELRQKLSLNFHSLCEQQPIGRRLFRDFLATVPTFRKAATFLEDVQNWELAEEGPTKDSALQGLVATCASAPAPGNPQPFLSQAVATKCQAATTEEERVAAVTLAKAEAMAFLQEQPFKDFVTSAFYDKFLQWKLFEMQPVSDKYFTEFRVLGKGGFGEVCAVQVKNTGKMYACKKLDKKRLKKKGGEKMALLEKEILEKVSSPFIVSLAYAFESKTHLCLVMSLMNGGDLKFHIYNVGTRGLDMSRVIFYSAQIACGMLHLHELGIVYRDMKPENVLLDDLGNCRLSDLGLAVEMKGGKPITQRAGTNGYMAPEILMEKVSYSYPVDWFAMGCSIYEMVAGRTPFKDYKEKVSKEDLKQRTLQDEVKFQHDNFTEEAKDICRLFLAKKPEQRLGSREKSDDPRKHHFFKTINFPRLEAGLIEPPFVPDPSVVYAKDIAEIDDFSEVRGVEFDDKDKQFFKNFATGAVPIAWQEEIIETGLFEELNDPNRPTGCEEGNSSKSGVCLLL
The assay is described as follows: Inhibition of human GRK7 using casein as substrate at 1 uM in presence of 32P-ATP by Hotspot assay relative to control; values are per cent of control.

Assay [4] has as its target ALK tyrosine kinase receptor (Homo sapiens) (UniProt Q9UM73). The assay is described as follows: Inhibition of human ALK using poly[Glu:Tyr] (4:1) as substrate at 1 uM in presence of 32P-ATP by Hotspot assay relative to control; values are per cent of control.

ALK tyrosine kinase receptor (Homo sapiens), sequence (Q9UM73 19-1620 limits assumed): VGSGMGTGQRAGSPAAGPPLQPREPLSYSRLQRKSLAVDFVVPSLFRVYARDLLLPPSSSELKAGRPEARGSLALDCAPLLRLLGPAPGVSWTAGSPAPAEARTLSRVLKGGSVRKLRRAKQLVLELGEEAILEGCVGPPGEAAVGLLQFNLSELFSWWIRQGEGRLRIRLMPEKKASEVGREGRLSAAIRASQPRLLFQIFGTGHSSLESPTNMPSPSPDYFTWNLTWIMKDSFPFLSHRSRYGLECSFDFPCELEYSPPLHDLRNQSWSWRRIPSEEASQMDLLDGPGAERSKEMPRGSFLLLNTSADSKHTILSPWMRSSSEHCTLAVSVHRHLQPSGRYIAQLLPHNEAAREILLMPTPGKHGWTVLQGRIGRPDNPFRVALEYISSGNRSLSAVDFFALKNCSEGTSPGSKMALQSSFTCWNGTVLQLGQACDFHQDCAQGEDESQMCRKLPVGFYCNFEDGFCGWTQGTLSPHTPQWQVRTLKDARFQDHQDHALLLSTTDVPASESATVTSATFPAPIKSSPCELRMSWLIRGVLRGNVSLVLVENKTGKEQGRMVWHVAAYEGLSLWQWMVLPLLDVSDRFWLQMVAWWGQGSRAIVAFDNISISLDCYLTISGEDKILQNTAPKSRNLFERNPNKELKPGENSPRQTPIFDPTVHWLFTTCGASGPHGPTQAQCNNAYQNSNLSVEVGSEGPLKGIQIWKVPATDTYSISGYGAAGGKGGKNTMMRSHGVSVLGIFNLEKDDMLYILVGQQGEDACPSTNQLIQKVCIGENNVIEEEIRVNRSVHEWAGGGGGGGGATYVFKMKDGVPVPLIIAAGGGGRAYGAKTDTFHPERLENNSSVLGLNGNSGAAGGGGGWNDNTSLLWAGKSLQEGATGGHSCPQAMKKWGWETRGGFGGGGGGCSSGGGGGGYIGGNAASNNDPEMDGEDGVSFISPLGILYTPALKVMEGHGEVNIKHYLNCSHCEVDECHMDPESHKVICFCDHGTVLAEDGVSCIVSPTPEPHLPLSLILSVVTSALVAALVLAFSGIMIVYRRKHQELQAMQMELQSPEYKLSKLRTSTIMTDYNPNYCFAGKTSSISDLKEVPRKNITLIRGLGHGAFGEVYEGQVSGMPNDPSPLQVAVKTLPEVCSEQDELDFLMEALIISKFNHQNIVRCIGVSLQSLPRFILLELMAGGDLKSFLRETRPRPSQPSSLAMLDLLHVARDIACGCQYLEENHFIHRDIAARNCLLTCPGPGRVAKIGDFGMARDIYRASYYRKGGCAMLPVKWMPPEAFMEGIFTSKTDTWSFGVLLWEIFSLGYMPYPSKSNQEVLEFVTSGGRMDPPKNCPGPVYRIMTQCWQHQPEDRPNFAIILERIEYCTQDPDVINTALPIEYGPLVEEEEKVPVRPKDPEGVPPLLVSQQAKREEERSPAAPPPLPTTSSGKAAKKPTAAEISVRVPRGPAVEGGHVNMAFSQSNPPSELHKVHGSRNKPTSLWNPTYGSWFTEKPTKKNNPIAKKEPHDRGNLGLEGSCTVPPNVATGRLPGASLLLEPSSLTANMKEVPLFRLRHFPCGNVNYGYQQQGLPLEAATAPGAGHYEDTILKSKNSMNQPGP

In general, residual activity refers to the signal under treatment as a percentage of the control signal. Turning to `CNC(=O)c1ccc2c(c1)ncn2-c1ccc(CC(=O)OC(C)(C)C)cc1`, the residual activity in assay [1] was determined as 96.4%; in assay [2], 90.1%; in assay [3], 92.4%; in assay [4], 101%.

With `Cc1cc(-c2cnc(N)c3c(-c4ccc5scnc5c4)csc23)n(C)n1`, the residual activity in assay [1] is 97.3%; in assay [2], 69.9%; in assay [3], 100%; in assay [4] it was 96.6%.

Regarding `CC(C)S(=O)(=O)c1ccc2nccc(Nc3ccc4scnc4c3)c2c1`, the residual activity in assay [1] turned out to be 88.2%; in assay [2], 90.4%; in assay [3] it was 101%; in assay [4] it was 90.8%.

(Values after ChEMBL document CHEMBL5649166, “RIP3 induces apoptosis independent of pronecrotic kinase activity” (Mol Cell, 2014).)
